Here are results for eleven compounds from patent US7288542B2, “Non-nucleoside reverse transcriptase inhibitors” (Roche Palo Alto LLC, priority 2004, dated 2007).

Structures are written as SMILES. Structures can show the parent of a compound that is named as a salt.

A word on the melting point: it is the temperature of the solid-liquid transition.

One series can be described thus: Oral pharmacokinetics in rats: plasma concentration of active nnRTI after gavage of prodrug or parent (Example 8). Format: in vivo. Conditions: parent compound dosed p.o. at 50 mg/kg. The procedure:
dose equivalent to (0.127 mmol) was administered orally by gavage. A blood sample (0.3 mL) was collected from the […] at 0.5, 1, 2, 3, 4, 6 and 8 hours after via the jugular cannula. A sample of at least 0.3 mL of blood was withdrawn from the untreated animals 3 h after dosing. After 24 h from dosing, as much blood as possible was collected from all treated and control animals. Potassium oxalate/NaF was added to the samples which were stored on ice during sampling procedure. The samples were spun in a refrigerated centrifuge at […] as soon as possible and the plasma samples were stored −20° C. immediately after centrifugation amd later transferred to a −80° C. freezer until analysis. The concentration of test compound was determined by hplc.
With `Cc1cc(Cc2ccc(Cl)c(Oc3cc(C#N)cc(C#N)c3)c2F)n[nH]c1=O` [Compound 10, 5-[6-chloro-2-fluoro-3-(5-methyl-6-oxo-1,6-dihydro-pyridazin-3-ylmethyl)-phenoxy]-isophthalonitrile], the “AUC (total amount of active nnRTI absorbed)” value came out at 8100 ng·h/mL.

With `Cc1cc(Cc2ccc(Cl)c(Oc3cc(Cl)cc(C#N)c3)c2F)n[nH]c1=O` [Compound 11, 3-chloro-5-[6-chloro-2-fluoro-3-(5-methyl-6-oxo-1,6-dihydro-pyridazin-3-ylmethyl)-phenoxy]-benzonitrile], the “AUC (total amount of active nnRTI absorbed)” value came out at 30000 ng·h/mL.

The same series, now with this note: rat, plasma, po, parent compound dosed p.o. at 50 mg/kg, read-out: Cmax (peak concentration of active nnRTI) (converted).
As for `Cc1cc(Cc2ccc(Cl)c(Oc3cc(C#N)cc(C#N)c3)c2F)n[nH]c1=O` [Compound 10, 5-[6-chloro-2-fluoro-3-(5-methyl-6-oxo-1,6-dihydro-pyridazin-3-ylmethyl)-phenoxy]-isophthalonitrile], the Cmax was 600 ng/mL.

Take `Cc1cc(Cc2ccc(Cl)c(Oc3cc(Cl)cc(C#N)c3)c2F)n[nH]c1=O` [Compound 11, 3-chloro-5-[6-chloro-2-fluoro-3-(5-methyl-6-oxo-1,6-dihydro-pyridazin-3-ylmethyl)-phenoxy]-benzonitrile]: the Cmax is 2300 ng/mL.

Assay in the next series: not given
Settings: not given
In turn, `Cc1cc(Cc2ccc(Cl)c(Oc3cc(C#N)cc(C#N)c3)c2F)nn(COC(=O)OCCN(C)C)c1=O` (as salt: HCl) [Compound I-18, Carbonic acid 3-[4-chloro-3-(3,5-dicyano-phenoxy)-2-fluoro-benzyl]-5-methyl-6-oxo-6H-pyridazin-1-ylmethyl ester 2-dimethylamino-ethyl ester] returned a melting point of 75 to 90 °C.

As to `Cc1cc(Cc2ccc(Cl)c(Oc3cc(C#N)cc(C#N)c3)c2F)nn(COC(=O)[C@@H](N)C(C)C)c1=O` (as salt: hydrochloride) [Compound I-5, (S)-1-{3-[4-Chloro-3-(3,5-dicyano-phenoxy)-2-fluoro-benzyl]-5-methyl-6-oxo-6H-pyridazin-1-ylmethoxycarbonyl}-2-methyl-propyl-ammonium; chloride], the melting point fell in the range of 176.7 to 178.3 °C.

In turn, `Cc1cc(Cc2ccc(Cl)c(Oc3cc(C#N)cc(C#N)c3)c2F)nn(COP(=O)(O)O)c1=O` (as salt: sodium) (hydrate or solvate) [Compound I-23, Phosphoric acid mono-{3-[4-chloro-3-(3,5-dicyano-phenoxy)-2-fluoro-benzyl]-5-methyl-6-oxo-6H-pyridazin-1-ylmethyl}ester disodium salt] came in with a melting point of 193.7 to 197.2 °C.

For `Cc1cc(Cc2ccc(Cl)c(Oc3cc(C#N)cc(C#N)c3)c2F)nn(CO)c1=O` [Compound I-1, 5-[6-Chloro-2-fluoro-3-(1-hydroxymethyl-5-methyl-6-oxo-1,6-dihydro-pyridazin-3-ylmethyl)-phenoxyl]-isophthalonitrile], the melting point lay in the range of 172 to 179 °C.

Compound `Cc1cc(Cc2ccc(Cl)c(Oc3cc(C#N)cc(C#N)c3)c2F)nn(COC(=O)CCC(=O)O)c1=O` [Compound I-8, Succinic acid mono-{3-[4-chloro-3-(3,5-dicyano-phenoxy)-2-fluoro-benzyl]-5-methyl-6-oxo-6H-pyridazin-1-ylmethyl}ester] had a melting point of 167 to 171.5 °C.

With `Cc1cc(Cc2ccc(Cl)c(Oc3cc(C#N)cc(C(F)F)c3)c2F)nn(CO)c1=O` [Compound I-27], the melting point was in the range of 113.9 to 117.3 °C.

For `Cc1cc(Cc2ccc(Cl)c(Oc3cc(C#N)cc(C(F)F)c3)c2F)nn(COC(=O)CCC(=O)O)c1=O` [Compound I-28, Succinic acid mono-{3-[4-chloro-3-(3-cyano-5-difluoromethyl-phenoxy)-2-fluoro-benzyl]-5-methyl-6-oxo-6H-pyridazin-1-ylmethyl}ester], the melting point was 154.3 to 156.9 °C.

For `N#Cc1cc(F)cc(Oc2c(Cl)ccc(Cc3ccc(=O)n(CO)n3)c2F)c1` [Compound I-29], the melting point lay in the range of 100.5 to 103.8 °C.

`N#Cc1cc(F)cc(Oc2c(Cl)ccc(Cc3ccc(=O)n(COC(=O)CCC(=O)O)n3)c2F)c1` [Compound I-30, Succinic acid mono-{3-[4-chloro-3-(3-cyano-5-fluoro-phenoxy)-2-fluoro-benzyl]-6-oxo-6H-pyridazin-1-ylmethyl}ester]: the melting point was 133.9 to 137 °C.
